Assay results published in PMC8294803, “A Roadmap to the Structure-Related Metabolism Pathways of Per- and Polyfluoroalkyl Substances in the Early Life Stages of Zebrafish (Danio rerio)” (Environmental Health Perspectives, 2021).
Several values for one entry are separate records, joined by “and”; a condition that tells them apart may be missing. Identical values can stand only once. Like-named read-outs stand apart in the source and are kept apart here.

Assays:
zebrafish larvae = assay: Bioconcentration factors (BCF) of PFAS in zebrafish larvae; conditions: zebrafish larvae, 120 hpf, three replicates; for BCF 0.5µM: 0.5 µM exposure; for BCF 5µM: 5 µM exposure
Procedure: Zebrafish embryos were collected immediately after spawning, within 1 h, and subsequently transferred to 24-well plates with 1mL of facility water ( 0.036g sea salt, 0.15g sodium bicarbonate in 2L of reverse osmosis water). […] Three well replicates on the same plate were conducted for each concentration of individual chemical. […] Seven batches of experiments were performed to test all 74 PFAS. DMSO controls were incorporated in each batch of exposure experiments. Three replicates were performed for each treatment group, and 20 embryos were used for each replicate. […] For daily replenishment, 2.5mL of old exposure medium were replaced with freshly prepared medium every 24 h from 24 to 96 h post fertilization (hpf). Hatched or dead embryo numbers were recorded every 24 hpf, after which dead embryos were discarded from the growth media. Dead embryos or unhatched embryos were not used for PFAS measurement because the metabolism of PFAS might have been impacted. Zebrafish larvae collection occurred at 120 hpf. First, the larvae were anesthetized by cooling the plate in ice water (0–4°C) for ∼20 min . Then 8–15 larvae in each well were transferred into 1.5-mL tubes. Exposure media was carefully removed, and then the larvae were weighed (wet weight) after blotting excess water with a paper towel. […] Samples were stored at −80 °C until further chemical analysis was performed. Survival rate and hatching rate were calculated by summarizing all the documented data from the whole treatment duration. […] The exposure experiment of PFOSA was repeated using the same procedure as described above.
Each sample was spiked with 2μL of 0.2μg/mL mass-labeled PFAS mixture. Following this, 500μL of dichloromethane/methanol (2:1, vol/vol) was added to each sample for PFAS extraction. Larvae were then homogenized via ultrasonic probe, followed by 30 min of shaking and 30 min of sonication. Each sample was centrifuged at 14,000×g for 5 min, after which the supernatant was transferred to new tubes. Extraction was repeated once and the two supernatants were combined, evaporated under nitrogen flow, and reconstituted in 200μL of methanol for MS analysis.
Three microliters of each zebrafish extract was applied to a C18 column ( 1.5μm; 2.1mm×50mm; Thermo Scientific) and analyzed using a Vanquish ultra-HPLC system (Thermo Fisher Scientific) coupled to a Q Exactive high-resolution mass spectrometer (Thermo Fisher Scientific). The sampler and column compartments were maintained at 4°C and 40°C, respectively. The aqueous mobile phase solution (A) consisted of water, whereas the organic mobile phase solution (B) consisted of acetonitrile. […] MS data was acquired in full scan mode (100–1000 m/z, 70,000 mass resolution, 3×10^6 maximum ions collected per 100 ms), and tandem MS (MS/MS) data was recorded by all-ion fragmentation (AIF) mode. Negative and positive ion modes were carried out simultaneously at a 10-min method duration. […] An overview of the analyses conducted on the various PFAS is available in Table S2.
GraphPad Prism (version 7.0.4; GraphPad Software) and R studio (version 1.1.456; R Studio Inc.) software was used, and an ANOVA with Dunnett tests was employed to evaluate the statistical significance of the percentage hatched and mortality rate. Exponential regressions were used to determine the relationships between bioconcentration factor (BCF) and binding affinities ( Kd ) to L-FABP.

[1] = target: liver fatty acid binding protein (L-FABP); set-up: method as in Yang et al. 2020; conditions: ref Yang et al. 2020; read-out: Kd (μM), L-FABP binding affinity; cited from earlier work
[2] = 5μM through 120 hpf, malformation rate
[3] = zebrafish (Danio rerio), in vivo

Row | Structure (SMILES) | BCF 0.5µM (zebrafish larvae) | BCF 5µM (zebrafish larvae) | pericardial oedemata, Mean (zebrafish embryos; [2]) | spinal curvature, Mean (zebrafish embryos; [2]) | tail dysplasia, Mean (zebrafish embryos; [2]) | Mortality (%) (zebrafish embryos; 5 µM, exposure through 120 hpf) | Kd [1] | Mortality (%) (zebrafish embryos; in vivo) | pericardial oedemata, Mean (zebrafish embryos; in vivo) | spinal curvature, Mean (zebrafish embryos; in vivo) | tail dysplasia, Mean (zebrafish embryos; in vivo) | Lethal effects on zebrafish larvae (zebrafish embryos; 5μM, 5 d) | Mortality (%) (zebrafish embryos; [3]) | pericardial oedemata, Mean (zebrafish embryos; [3]) | spinal curvature, Mean (zebrafish embryos; [3]) | tail dysplasia, Mean (zebrafish embryos; [3])
1 | O=S(=O)([O-])C(F)(F)C(F)(F)C(F)(F)C(F)(F)C(F)(F)C(F)(F)C(F)(F)C(F)(F)F.[K+] [compound 6, Potassium perfluorooctanesulfonate] | 288 ± 99 L/kg and 287.815 L/kg | 82 ± 9.2 L/kg | 1.11% | 2.22% | 1.11% | 2.2% | 8.1 µM |  |  |  |  |  |  |  |  | 
2 | O=C(O)C(F)(F)OC(F)(F)C(F)(F)OC(F)(F)C(=O)O [compound 7, Perfluoro-3,6-dioxaoctane-1,8-dioic acid] | NDb |  | 2.22% | 1.11% | 0.00% | 1.1% |  |  |  |  |  |  |  |  |  | 
3 | O=S(=O)(O)CCC(F)(F)C(F)(F)C(F)(F)C(F)(F)F [compound 15, 4:2 Fluorotelomer sulfonic acid] | 5.68 L/kg | 2.5 ± 0.13 L/kg |  |  |  |  |  | 0 | 1.11% | 0.00% | 0.00% |  |  |  |  | 
4 | O=C(O)C(F)(F)C(F)(F)C(F)(F)C(F)(F)C(F)(F)C(F)(F)C(F)(F)C(F)(F)F [compound 17, Perfluorononanoic acid] | 152.811 L/kg | 73 ± 6.9 L/kg | 0.00% | 0.00% | 0.00% | 1.1% | 4.3 µM |  |  |  |  |  |  |  |  | 
5 | O=C(O)C(F)(F)C(F)(F)C(F)(F)C(F)(F)C(F)(F)F [compound 20, Perfluorohexanoic acid] | 6.647 L/kg | 3.5 ± 0.64 L/kg | 0.00% | 0.00% | 0.00% | 0% | 141 µM |  |  |  |  |  |  |  |  | 
6 | N.O=C(O)C(F)(F)C(F)(F)C(F)(F)C(F)(F)C(F)(F)C(F)(F)C(F)(F)F [compound 21, Ammonium perfluorooctanoate] | 42.5265 L/kg | 21 ± 0.42 L/kg | 2.22% | 1.11% | 2.22% | 0% | 18.7 µM |  |  |  |  |  |  |  |  | 
7 | O=C(O)C=C(C(F)(F)F)C(F)(F)F [compound 23, 3,3-Bis(trifluoromethyl)-2-propenoic acid] | 1.831 L/kg | 0.69 ± 0.29 L/kg | 1.11% | 3.33% | 3.33% | 2.2% |  |  |  |  |  |  |  |  |  | 
8 | CCNS(=O)(=O)C(F)(F)C(F)(F)C(F)(F)C(F)(F)C(F)(F)C(F)(F)C(F)(F)C(F)(F)F [compound 24, N-Ethylperfluorooctanesulfonamide] | 28.4424 L/kg | 24 ± 2.9 L/kg | 1.11% | 1.11% | 1.11% | 3.3% |  |  |  |  |  | did not cause significant lethal effects |  |  |  | 
9 | O=S(=O)([O-])C(F)(F)C(F)(F)C(F)(F)C(F)(F)C(F)(F)C(F)(F)F.[K+] [compound 26, Potassium perfluorohexanesulfonate] | 55.2382 L/kg | 30 ± 0.71 L/kg | 0.00% | 0.00% | 0.00% | 3.3% | 11.2 µM |  |  |  |  |  |  |  |  | 
10 | O=C(O)C(F)(F)C(F)(F)C(F)(F)OC(F)(F)F [compound 28, Perfluoro(4-methoxybutanoic) acid] | 5.238 L/kg | 1.4 ± 0.17 L/kg | 0.00% | 2.22% | 0.00% | 1.1% | 815 µM |  |  |  |  |  |  |  |  | 
11 | O=C(O)C(F)(F)OC(F)(F)C(F)(F)OC(F)(F)C(F)(F)OC(F)(F)C(F)(F)C(F)(F)C(F)(F)F [compound 34, Perfluoro-3,6,9-trioxatridecanoic acid] | 585 ± 174 L/kg and 584.908 L/kg | 93 ± 19 L/kg | 0.00% | 0.00% | 0.00% | 10% | 8.22 µM |  |  |  |  |  |  |  |  | 
12 | OCC(F)(F)C(F)(F)C(F)(F)CO [compound 35, Hexafluoroamylene glycol] | 1.573 L/kg | 1.1 ± 0.09 L/kg | 1.11% | 4.44% | 0.00% | 0% |  |  |  |  |  |  |  |  |  | 
13 | O=S(=O)(O)C(F)(F)C(F)(F)C(F)(F)C(F)(F)C(F)(F)C(F)(F)C(F)(F)C(F)(F)F [compound 46, Perfluorooctanesulfonic acid] | 270.546 L/kg | 91 ± 10 L/kg | 0.00% | 0.00% | 0.00% | 2.2% | 8.1 µM |  |  |  |  |  |  |  |  | 
14 | OCC(F)(F)C(F)(F)C(F)(F)C(F)F [compound 48, 1H,1H,5H-Perfluoropentanol] |  |  | 4.44% | 6.67% | 1.11% | 1.1% | 916 µM |  |  |  |  |  |  |  |  | 
15 | OCC(F)(F)C(F)(F)C(F)(F)C(F)(F)C(F)(F)C(F)(F)C(F)(F)C(F)(F)C(F)(F)C(F)(F)C(F)(F)F [compound 50, 11:1 Fluorotelomer alcohol] |  | 1.7 ± 0.23 L/kg | 1.11% | 0.00% | 1.11% | 1.1% |  |  |  |  |  |  |  |  |  | 
16 | O=C(O)C(F)(F)OC(F)(F)C(F)(F)OC(F)(F)F [compound 54, Perfluoro-3,6-dioxaheptanoic acid] | 2.103 L/kg | 2.0 ± 0.40 L/kg | 1.11% | 0.00% | 1.11% | 2.2% | 252 µM |  |  |  |  |  |  |  |  | 
17 | O=S(=O)([O-])C(F)(F)C(F)(F)C(F)(F)C(F)(F)F.[K+] [compound 57, Potassium perfluorobutanesulfonate] | 4.038 L/kg | 3.0 ± 0.54 L/kg | 1.11% | 0.00% | 0.00% | 2.2% | 125 µM |  |  |  |  |  |  |  |  | 
18 | O=C(/C=C(\O)C(F)(F)F)C(F)(F)F [compound 61, 3H-Perfluoro-4-hydroxy-3-penten-2-one] |  | 7.7 ± 2.3 L/kg |  |  |  |  | 135 µM |  |  |  |  |  | 4.4 | 0.00% | 0.00% | 0.00%
19 | O=S(=O)(O)C(F)(F)C(F)(F)C(F)(F)C(F)(F)F [compound 73, Perfluorobutanesulfonic acid] | 2.903 L/kg | 2.8 ± 0.47 L/kg | 0.00% | 1.11% | 0.00% | 5.6% | 116 µM |  |  |  |  |  |  |  |  | 
